Test system: KRT14+ basal cells
Experiment: Basal progenitor identity (KRT14/KRT6A) and proliferation (Ki67) in cornea
Format: in vivo, mouse
Conditions: 2 wks treatment; Aire KO cornea
Source text: Although it has been well established that basal progenitor cells (also referred to as transit amplifying cells (13)) undergo mitosis and migration (14) to give rise to the barrier forming suprabasal epithelial and stratified squamous epithelial cells, the impact of dry eye disease on basal cell identity and differentiation remains largely unknown. Thus, we questioned whether basal cell identity was altered in the desiccated cornea through defining the cellular location of KRT6A, a marker of early epithelial cell differentiation in skin (15) and cultured cornea epithelial cells (16). Accordingly, we confirmed that KRT6A marks differentiated corneal epithelial cell types in vivo, as shown by its exclusive expression in KRT14-deficient suprabasal and superficial epithelial cells of healthy cornea at 7 wks of age (FIG. 1G). […] To determine if changes in cell identity alters progenitor cell division, we analyzed the percentage of proliferating K14+ basal cells in treated and untreated corneas. […]
Quantification of corneal epithelial basal progenitor identity and proliferation. The number of basal KRT14+ and KRT14+ KRT6A+ basal epithelial cells were counted in 350 μm sections of central cornea. […] The number of proliferating epithelial progenitors (Ki67+ KRT14+) was presented as a percentage of total KRT14+ cells counted in 350 μm sections of central cornea.

Ac-KQFIENGSEFAQKLLKKFSLLKPWA-NH2 [lacripep, amino terminus acetylated, carboxyl terminus aminated]
basal cell identity (KRT6A in KRT14+ basal cells): returned to that of WT tissue
